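A five-concentration, 48-hour dose response in 96-well plates underlies each endpoint, interpolated linearly between surrounding concentrations. The concentration for full growth arrest is given as TGI.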
Assays:
Test in all cases: inhibition of tumour cell growth, NCI panel, 48 h
LOX IMVI melanoma = test system: LOX IMVI melanoma
A498 renal = test system: A498 renal
IGROV1 ovarian = test system: IGROV1 ovarian
MDA-N = test system: MDA-N
OVCAR-8 ovarian = test system: OVCAR-8 ovarian
MALME-3M melanoma = test system: MALME-3M melanoma
SW-620 colon = test system: SW-620 colon
TK-10 renal = test system: TK-10 renal
HCT-116 colon = test system: HCT-116 colon
HCT-15 colon = test system: HCT-15 colon
SK-MEL-28 melanoma = test system: SK-MEL-28 melanoma

SMILES	TGI (LOX IMVI melanoma)	TGI (A498 renal)	TGI (IGROV1 ovarian)	TGI (MDA-N)	TGI (OVCAR-8 ovarian)	TGI (MALME-3M melanoma)	TGI (SW-620 colon)	TGI (TK-10 renal)	TGI (HCT-116 colon)	TGI (HCT-15 colon)	TGI (SK-MEL-28 melanoma)
CCOC(=O)CCc1c(C(=O)OCC)[nH]c(/C=C2/NC(=O)C(C)=C2CC)c1C	21 µM	77.6 µM	47.7 µM	26.6 µM	> 100 µM	33.3 µM	> 100 µM	88.2 µM	28.1 µM	15.3 µM	30.2 µM
CCCCCCN(C(=O)Oc1ccccc1)C(C#N)c1ccccc1 (stereo not given)	> 100 µM	> 100 µM	> 100 µM	> 100 µM	> 100 µM	> 100 µM	> 100 µM	> 100 µM	> 100 µM	> 100 µM	> 100 µM
COc1ccc(NC(=O)C2=C(SC)C(C#N)C(=O)N=C2N)cc1 (stereo not given)	> 100 µM	> 100 µM	> 100 µM	> 100 µM	–	76.8 µM	> 100 µM	> 100 µM	> 100 µM	> 100 µM	> 100 µM
N#Cc1c(-c2ccccc2)c(C#N)c(=O)n(NS(=O)(=O)c2ccccc2)c1O	> 100 µM	> 100 µM	> 100 µM	> 100 µM	> 100 µM	> 100 µM	> 100 µM	> 100 µM	> 100 µM	> 100 µM	> 100 µM
Cc1sc2ncnc(NCCc3ccccc3)c2c1C	22.4 µM	29 µM	32.5 µM	23.8 µM	38 µM	52.3 µM	> 100 µM	46.5 µM	24.9 µM	87.7 µM	35 µM
Fc1ccc(C(OCCN2CCC3CCC(C2)N3CCCc2ccccc2)c2ccc(F)cc2)cc1 (stereo not given)	13.8 µM	11.8 µM	17.7 µM	11.3 µM	4.93 µM	5.46 µM	19.9 µM	15.7 µM	10.6 µM	14.5 µM	6.53 µM
CC(=O)NNC=N/C(C#N)=C(\N)C#N	> 100 µM	> 100 µM	> 100 µM	> 100 µM	> 100 µM	> 100 µM	> 100 µM	> 100 µM	> 100 µM	> 100 µM	> 100 µM
CC(=O)Nc1c(C)cc(OCC(=O)O)cc1C	> 100 µM	> 100 µM	> 100 µM	> 100 µM	> 100 µM	> 100 µM	> 100 µM	> 100 µM	> 100 µM	> 100 µM	> 100 µM
C[N+](C)(C)CC1Cc2ccccc2C1=O (stereo not given)	> 10 µM	> 10 µM	> 10 µM	> 10 µM	> 3.16 µM	4.53 µM	3.84 µM	> 10 µM	3.11 µM	> 10 µM	> 10 µM
CC1=NC(=Cc2ccc(Cl)cc2)C(=O)N1n1c(-c2ccccc2)nc2ccccc2c1=O	> 100 µM	63.4 µM	> 100 µM	> 100 µM	> 100 µM	> 100 µM	> 100 µM	> 100 µM	> 100 µM	> 100 µM	> 100 µM
CC[C@@]1(O)C(=O)OCc2c1c(Cl)c1n(c2=O)Cc2cc3ccccc3nc2-1	4.01 µM	8.45 µM	42.9 µM	> 100 µM	22.9 µM	42.1 µM	> 100 µM	> 79.5 µM	8.76 µM	> 81.6 µM	> 100 µM
CCOP(=O)(CS(C)=O)O[C@@H]1C[C@H](C)CC[C@H]1C(C)C (stereo not given in full)	3.77 µM	4.87 µM	10.3 µM	8.97 µM	17.4 µM	26.8 µM	14.6 µM	16.3 µM	> 23.9 µM	7.81 µM	> 100 µM
COc1c(O)cc(/C=C/c2cc(O)cc3c2[C@@]2(C(=O)O3)c3c(O)cc(O)cc3OC2c2cccc(O)c2)cc1O (stereo not given in full)	> 100 µM	> 100 µM	> 100 µM	> 100 µM	> 100 µM	> 100 µM	> 100 µM	> 100 µM	> 100 µM	> 100 µM	> 100 µM
CN1CC=C(OP(=O)(NCc2ccccc2)N(CCCl)CCCl)CC1 (stereo not given)	> 100 µM	> 100 µM	> 100 µM	> 100 µM	> 100 µM	> 100 µM	> 100 µM	> 100 µM	> 100 µM	> 100 µM	> 100 µM
O=C1C(NCCc2cc(Br)c(O)c(Br)c2)=CC(=O)c2ncccc21	8.69 µM	9.88 µM	10.3 µM	3.34 µM	32.7 µM	2.84 µM	> 57.7 µM	73 µM	12.4 µM	31.9 µM	10 µM
CSC1=N/C(=C\c2cccs2)C(=O)N1CN1CCCCC1	75.6 µM	> 100 µM	> 100 µM	> 100 µM	> 100 µM	> 100 µM	> 100 µM	> 100 µM	> 100 µM	> 100 µM	> 100 µM

SMILES	TGI (LOX IMVI melanoma)	TGI (A498 renal)	TGI (IGROV1 ovarian)	TGI (MDA-N)	TGI (OVCAR-8 ovarian)	TGI (MALME-3M melanoma)	TGI (SW-620 colon)	TGI (TK-10 renal)	TGI (HCT-116 colon)	TGI (HCT-15 colon)	TGI (SK-MEL-28 melanoma)
CCOc1ccc(C2c3[nH]c4ccccc4c3CCN2C(=O)c2cccs2)cc1 (stereo not given)	> 100 µM	> 100 µM	> 100 µM	> 100 µM	> 100 µM	> 100 µM	> 100 µM	> 100 µM	> 100 µM	> 100 µM	> 100 µM
CCCCCCCCCC(=O)OCC1(CO)C/C(=C/CC(C(C)C)C(C)C)C(=O)O1 (stereo not given)	> 100 µM	> 100 µM	> 100 µM	> 100 µM	> 100 µM	82.3 µM	81.6 µM	> 100 µM	> 100 µM	> 100 µM	> 100 µM
Cc1ccc(-c2c(C#N)c(-c3ccc(N(C)C)cc3)c(C#N)c(=O)n2NS(=O)(=O)c2ccccc2)cc1	> 100 µM	> 100 µM	> 100 µM	> 100 µM	> 100 µM	> 100 µM	> 100 µM	> 100 µM	> 100 µM	> 100 µM	> 100 µM
COc1ccc(CSCc2cc(OC)c(OC)c(OC)c2)cc1	> 31.6 µM	> 100 µM	> 100 µM	> 100 µM	> 31.6 µM	> 31.6 µM	> 100 µM	> 100 µM	> 31.6 µM	> 100 µM	> 100 µM
CCC(=O)N(c1ccccc1)C(C)CN1CCC(O)(c2ccccc2)CC1 (stereo not given)	> 100 µM	> 100 µM	> 100 µM	> 100 µM	> 100 µM	> 100 µM	–	> 100 µM	> 100 µM	> 100 µM	> 100 µM
CCn1c(=O)c2c(=O)[nH][nH]c2c2ccccc21	> 100 µM	> 100 µM	> 100 µM	> 100 µM	> 100 µM	> 100 µM	> 100 µM	> 100 µM	> 100 µM	> 100 µM	> 100 µM
NN/C(=N\S(=O)(=O)c1cc(Cl)c(Oc2ccc([N+](=O)[O-])cc2Cl)c(Cl)c1)Nc1ccc(Cl)cc1	45 µM	64.4 µM	42.3 µM	33 µM	60.4 µM	37.2 µM	> 100 µM	56.6 µM	29.1 µM	41.7 µM	48.3 µM
CCN(CC)c1ccc(/C=C/C2=NN(c3cccc(S(=O)(=O)O)c3)C3(C2)C(Cl)C(=O)N3c2nc3ccccc3s2)cc1 (stereo not given)	9.12 µM	24.8 µM	17 µM	30 µM	31.4 µM	24.9 µM	53.4 µM	14.3 µM	24.1 µM	24.1 µM	63 µM
O=C(O)CCC(=O)Nc1ccc2c(c1)S(=O)(=O)N(CC(=O)O)C2=O	> 100 µM	> 100 µM	> 100 µM	> 100 µM	> 100 µM	> 100 µM	> 100 µM	> 100 µM	> 100 µM	> 100 µM	> 100 µM
O=c1cc(-c2ccc(O)c(O)c2)oc2cc(OC3OC(CO)C(O)C(O)C3O)cc(O)c12 (stereo not given)	> 100 µM	> 100 µM	> 100 µM	> 100 µM	> 100 µM	> 100 µM	> 100 µM	> 100 µM	> 100 µM	> 100 µM	> 100 µM
O=C(Cc1ccccc1)N/N=C(/CCN1CCCC1)CC(c1ccccc1)c1c(O)c2ccccc2oc1=O (stereo not given)	44.4 µM	> 100 µM	> 100 µM	> 100 µM	> 100 µM	> 100 µM	> 100 µM	> 100 µM	> 100 µM	> 100 µM	> 100 µM
Cc1c(-c2ccccc2)c(-c2ccc(OCCN(C)C)cc2)n2ccccc12	5.81 µM	29.1 µM	23.8 µM	14.3 µM	28.5 µM	17.3 µM	17.9 µM	27.3 µM	19 µM	8.06 µM	3.45 µM
CC(=O)c1c2c(cc3c1CC1(Cc4cc5c(cc4C1)CCC5)C3)CCC2	> 100 µM	> 100 µM	> 100 µM	> 100 µM	> 100 µM	> 100 µM	> 100 µM	> 100 µM	> 100 µM	> 100 µM	> 100 µM
Cc1ccc2c(c1)C(C1Cc3c(C)cccc3C1=O)OC2=O (stereo not given)	> 100 µM	> 100 µM	> 100 µM	> 100 µM	> 100 µM	> 100 µM	> 100 µM	> 100 µM	> 100 µM	> 100 µM	> 100 µM
Cn1c(=O)nc2n(CCO)c(-c3ccccc3)c(-c3ccccc3)nc-2c1=O	> 100 µM	> 100 µM	> 100 µM	> 100 µM	> 100 µM	> 100 µM	> 100 µM	> 100 µM	> 100 µM	> 100 µM	> 100 µM
CN(CCO)CC(=O)CC(O)(C(F)(F)F)C(F)(F)F	86.3 µM	> 100 µM	> 100 µM	> 100 µM	> 100 µM	> 100 µM	> 100 µM	> 100 µM	> 100 µM	> 100 µM	> 100 µM

Source: PubChem BioAssay (NCI)
